In PMC9404989, “Design and Evaluation of Short Bovine Lactoferrin-Derived Antimicrobial Peptides against Multidrug-Resistant Enterococcus faecium” (Antibiotics, 2022):
Entries after “also recorded” stand apart in the source; their conditions may differ. No end group written: not given here.

Key:
[1] = HPLC retention time on C18 reverse-phase column; type: physicochemical
Description: Table 1 Physical parameters and the minimal inhibitory concentration (µg/mL) of designed peptides against E. faecium. | column: rT ^f (min)

[2] = system: E. faecium strain C68 established biofilms; type: cell-based, Enterococcus faecium; settings: for established biomass reduced: at 32 µg/mL, 24 h established biofilms
Experimental: We prepared exponential cultures of E. faecium strain C68 (adjusted to 1 × 10^8 CFU/mL) in BHI media (supplemented with 0.2% glucose) from overnight grown cultures. We added 100 µL of the bacterial culture to wells of flat-bottomed 96-well polystyrene microtiter plates (Cat No. 3595, Corning, NY, USA). We then incubated the plates at 37 °C for 24 h in static conditions to allow biofilm formation. After incubation, we carefully pipetted out the media and washed the wells with PBS (Gibco, Waltham, MA, USA) to remove loosely attached planktonic cells. We treated the established biofilms in each well with 10 µL of serially diluted 10× peptide solution, followed by the addition of 90 μL of BHI media (supplemented with 0.2% glucose). The plates were incubated for another 24 h at 37 °C before processing for biomass and live-cell contents. We quantitated the concentration of peptide that disrupts 50% of established biofilms (MBEC50).

E. faecium WC176 = experiment: organism not typed; type: cell-based, Enterococcus faecium; settings: WC176, 18 h
Experimental: (§1) To determine the MICs of peptides, we used the broth microdilution method described by the Clinical and Laboratory Standards Institute. We made serial dilutions of 10× concentration (10 µL) for each peptide in duplicates in 96-well plates (Cat No. 3595, Corning, New York, NY, USA). We added 90 µL of logarithmic-phase bacteria at 5 × 10^5 CFU/mL (in BHI media) to the peptides and then incubated the plates at 37 °C for 18 h. We measured the OD600 absorbance readings using the Spectra Max i3x spectrophotometer (Molecular Devices, San Jose, CA, USA) and determined the MIC as the peptide concentration that inhibits the growth of bacteria.

[3] = system: drug-resistant E. faecium clinical isolates; type: cell-based, Enterococcus faecium; settings: strains D14, D24, D25, D29, C68 and WC176
Experimental: as §1

E. faecalis MMH594 = experiment: microbe, parasite or virus in culture; type: cell-based; settings: MMH594, 18 h
Experimental: as §1

E. faecalis V583 = experiment: microbe, parasite or virus in culture; type: cell-based; settings: V583, 18 h
Experimental: as §1

[4] = system: E. faecium strain C68 on porcine skin; experiment: Ex vivo porcine skin infection assay; parameters: species or system Enterococcus faecium; settings: 1 × 10^6 CFU, 4 h treatment
Description: We evaluated the efficacy of designed lactoferrin AMPs in an ex vivo porcine skin model previously described with minor modifications. We first cleaned the shaved porcine skin (Fisher Scientific, Hampton, NH, USA) with 70% ethanol and then water, and glued polyethylene tubing (5 mm) (Nalgene VWR 228-0170, Radnor, PA, USA) to the skin samples with cyanoacrylate glue (Fisher Scientific, Hampton, NH, USA). Using disposable razors, we cut each piece of skin glued to the tube and inserted it into a 12-well tissue culture plate (Falcon, Cat No. 353182). We infected each skin with 1 × 10^6 CFU of exponential or persister E. faecium strain C68 cells in a total volume of 10 µL. Following an incubation of 1 h at 37 °C, we treated the skin with 50 µL with 5L and 6L at concentrations of 10× or 1× MIC. After an additional 4 h of incubation at 37 °C, we washed each tubing well with 250 µL of PBS (pH 7.4) containing 0.05% Triton X-100 to remove bacteria. After serially diluting the bacterial sample, we counted their CFUs.

[5] = system: E. faecium strain C68 persister cells; experiment: Persister cell time-kill assay; type: cell-based, Enterococcus faecium
Experimental: For the generation of antibiotic-induced persister cells, we followed an established protocol. In brief, 25 mL of E. faecium strain C68 culture was grown to the stationary phase and then treated with gentamicin at 400 μg/mL for 5 h. We then disposed of the antibiotic-containing media and regrew the bacteria for another 18 h in fresh media. To produce stable persister cells, we repeated the cycle of antibiotic exposure and regrowth five times. The bacteria culture was then washed with the same volume of phosphate-buffered saline (PBS) 3× times and adjusted to 1 × 10^7 CFU/mL in PBS. For killing kinetics of the persister cells, we added 1 mL of the cell suspension to the wells of a 2 mL deep well assay block (Cat No. 3960, Corning, NY, USA) containing 10× MICs of 5L and 6L and incubated them at 37 °C, with shaking at 225 rpm. At specific times (0, 15, 30, 60, and 120 min), we collected 20 μL samples, diluted them serially, and then plated them on tryptic soy agar (TSA) (BD Difco, Franklin Lakes, NJ, USA) plates for 18 h at 37 °C for colony counting. We performed the experiments in duplicate. As a comparison, we prepared the exponential cells of E. faecium strain C68 in PBS and analyzed their killing kinetics in the same manner as described for persister cells.

[6] = system: E. faecium strain C68 established biofilms; experiment: Confocal microscopy of peptide-treated established biofilms (LIVE/DEAD); type: cell-based, Enterococcus faecium; settings: 10× MIC, 24 h established biofilms, 24 h treatment
Experimental: We prepared exponential cultures of E. faecium strain C68 (adjusted to 1 × 10^6 CFU/mL) in BHI media (supplemented with 0.2% glucose) from overnight grown cultures. To establish biofilms, we added 1 mL of the bacterial culture to the chambers of cuvettes (borosilicate cover glass, Nunc Cat. No. 155380) and maintained them at 37 °C for 24 h under static conditions. We carefully removed the media from the wells after incubation and then washed the wells with PBS (Gibco, MD, USA) to remove loosely attached planktonic cells. We treated the established biofilms in each well with 100 µL of serially diluted 10× MIC peptide solution (5L and 6L) followed by the addition of 900 μL of BHI media (supplemented with 0.2% glucose) and incubated the cuvettes for an additional 24 h at 37 °C. After incubation, we washed the cuvettes carefully with PBS (Gibco, MD, USA) to remove the planktonic cells and stained the biofilms with 10 µL of LIVE/DEAD kit (Molecular Probes, Life Technologies, Eugene, OR, USA) according to the manufacturer’s instructions. Finally, we visualized the biofilms using a confocal microscope (Zeiss 880) and processed the data via Zen 2010 software (Carl Zeiss, Jena, Germany).

[7] = strain C68 established biofilms, 24 h

## RRWLWLRRWLWR-NH2 [Peptide 5L]
[1]
  rT (HPLC retention time): 17.522 min
[2]
  established biomass reduced: 75%
[2]; [7]
  MBEC50 (established biomass): 16 µg/mL
  live bacteria killed within matured biofilm matrix: 50%
E. faecium WC176
  MIC WC176: 8 µg/mL
[3]
  MIC range against clinical isolates of E. faecium: 4 to 16 µg/mL
E. faecalis MMH594
  MIC E. faecalis MMH594: > 32 µg/mL
E. faecalis V583
  MIC E. faecalis V583: > 32 µg/mL
[4]
  bacterial load reduction, exponential cells, 1× MIC: 1 log
  bacterial load reduction, persister cells, 1× MIC: 1 log
  bacterial load, exponential cells, 10× MIC: effectively eliminated almost all exponential cells
  bacterial load, persister cells, 10× MIC: effectively eliminated all; also recorded: completely eliminated persister cells
[5]; 10× MIC (40 µg/mL), 1 × 10^7 CFU, PBS, within 120 min
  reduction of viable persister cells: 3 logs
[6]
  killing of bacteria inside biofilms (confocal, LIVE/DEAD): killed most of the bacteria inside the biofilms

## RRWLWRLRWLWR-NH2 [Peptide 6L]
[1]
  rT (HPLC retention time): 18.603 min
[2]
  established biomass reduced: 75%
[2]; [7]
  MBEC50 (established biomass): 16 µg/mL
E. faecium WC176
  MIC WC176: 8 µg/mL
[3]
  MIC range against clinical isolates of E. faecium: 4 to 16 µg/mL
E. faecalis MMH594
  MIC E. faecalis MMH594: > 32 µg/mL
E. faecalis V583
  MIC E. faecalis V583: > 32 µg/mL
[4]
  bacterial load reduction, exponential cells, 1× MIC: 1.2 logs
  bacterial load reduction, persister cells, 1× MIC: 1 log
  bacterial load, exponential cells, 10× MIC: effectively eliminated almost all exponential cells
  bacterial load, persister cells, 10× MIC: completely eliminated persister cells
[5]; 40 µg/mL, 1 × 10^7 persister cells
  time to eliminate all persister cells: ≤ 60 min
[6]
  killing of bacteria inside biofilms (confocal, LIVE/DEAD): killed most of the bacteria inside the biofilms
